PubChem BioAssay AID1963868 (Molecular Pharmacology Branch, DTP, NCI, 2024)
pIC50: −log10 of the molar value.

Test system: KRAS PDC tumor spheroids (HUVEC+MSC), viability
Experiment: Anticancer human tumor 254851-301-R-J1-PDC patient-derived colon carcinoma cell line growth inhibition [KRAS2]
Details: for pIC50: curve of first compound; for viability, T/C: stronger effect = lower value
In short: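 KRAS-mutant tumor cells were grown as spheroids with HUVEC endothelial cells and human MSCs as stroma. Targeted agents were tested alone and with KRAS pathway inhibitors. Doses started at or near clinical Cmax, or 10 microM, descending half-log.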

[1] = second compound 0.1 µM, first compound 0.0316 µM
[2] = second compound 0.1 µM, first compound 0.1 µM
[3] = second compound 0.316 µM, first compound 0.0316 µM
[4] = second compound 0.316 µM, first compound 0.1 µM
[5] = second compound 1 µM, first compound 0.0316 µM
[6] = second compound 1 µM, first compound 0.1 µM
[7] = second compound 3.16 µM, first compound 0.0316 µM
[8] = second compound 3.16 µM, first compound 0.1 µM
[9] = second compound 10 µM, first compound 0.0316 µM
[10] = second compound 10 µM, first compound 0.1 µM
[11] = second compound 0.1 µM, first compound 0.316 µM
[12] = second compound 0.1 µM, first compound 1 µM
[13] = second compound 0.1 µM, first compound 3.16 µM
[14] = second compound 0.1 µM, first compound 10 µM
[15] = second compound 0.316 µM, first compound 0.316 µM
[16] = second compound 0.316 µM, first compound 1 µM
[17] = second compound 0.316 µM, first compound 3.16 µM
[18] = second compound 0.316 µM, first compound 10 µM
[19] = second compound 1 µM, first compound 0.316 µM
[20] = second compound 1 µM, first compound 1 µM
[21] = second compound 1 µM, first compound 3.16 µM
[22] = second compound 1 µM, first compound 10 µM
[23] = second compound 3.16 µM, first compound 0.316 µM
[24] = second compound 3.16 µM, first compound 1 µM
[25] = second compound 3.16 µM, first compound 3.16 µM
[26] = second compound 3.16 µM, first compound 10 µM
[27] = second compound 10 µM, first compound 0.316 µM
[28] = second compound 10 µM, first compound 1 µM
[29] = second compound 10 µM, first compound 3.16 µM
[30] = second compound 10 µM, first compound 10 µM
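Note: spheroids exposed to compounds for seven days before readout.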
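Throughout, for viability, T/C: 100% = DMSO vehicle control luminescence of the spheroids.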

| SMILES | pIC50 (second compound 0.1 µM) | pIC50 (second compound 0.316 µM) | pIC50 (second compound 1 µM) | pIC50 (second compound 3.16 µM) | pIC50 (second compound 10 µM) | viability, T/C [1] [%] | viability, T/C [2] [%] | viability, T/C [3] [%] | viability, T/C [4] [%] | viability, T/C [5] [%] | viability, T/C [6] [%] | viability, T/C [7] [%] | viability, T/C [8] [%] | viability, T/C [9] [%] | viability, T/C [10] [%] | viability, T/C [11] [%] | viability, T/C [12] [%] | viability, T/C [13] [%] | viability, T/C [14] [%] | viability, T/C [15] [%] | also measured |
| --- | --- | --- | --- | --- | --- | --- | --- | --- | --- | --- | --- | --- | --- | --- | --- | --- | --- | --- | --- | --- | --- |
| CN(C)C/C=C/C(=O)Nc1cc2c(Nc3ccc(F)c(Cl)c3)ncnc2cc1O[C@H]1CCOC1 + C=CC(=O)N1CCN(c2nc(=O)n(-c3c(C)ccnc3C(C)C)c3nc(-c4c(O)cccc4F)c(F)cc23)C(C)C1 | < 7.00 | < 7.00 | < 7.00 | < 7.00 | < 7.00 | 97.2 | 93 | 93.4 | 75.2 | 83.6 | 73.5 | 100 | 82.5 | 95.6 | 74.4 |  |  |  |  |  | viability, T/C (second compound 0.1 µM, first compound 0.000316 µM): 110%; viability, T/C (second compound 0.1 µM, first compound 0.001 µM): 103%; viability, T/C (second compound 0.1 µM, first compound 0.00316 µM): 99.5%; viability, T/C (second compound 0.1 µM, first compound 0.01 µM): 93.8%; viability, T/C (second compound 0.316 µM, first compound 0.000316 µM): 104%; viability, T/C (second compound 0.316 µM, first compound 0.001 µM): 102%; viability, T/C (second compound 0.316 µM, first compound 0.00316 µM): 96.5%; viability, T/C (second compound 0.316 µM, first compound 0.01 µM): 89.6%; viability, T/C (second compound 1 µM, first compound 0.000316 µM): 99.5%; viability, T/C (second compound 1 µM, first compound 0.001 µM): 108%; viability, T/C (second compound 1 µM, first compound 0.00316 µM): 86.1%; viability, T/C (second compound 1 µM, first compound 0.01 µM): 87.2%; viability, T/C (second compound 3.16 µM, first compound 0.000316 µM): 101%; viability, T/C (second compound 3.16 µM, first compound 0.001 µM): 98.7%; viability, T/C (second compound 3.16 µM, first compound 0.00316 µM): 87.1%; viability, T/C (second compound 3.16 µM, first compound 0.01 µM): 93.8%; viability, T/C (second compound 10 µM, first compound 0.000316 µM): 109%; viability, T/C (second compound 10 µM, first compound 0.001 µM): 99.3%; viability, T/C (second compound 10 µM, first compound 0.00316 µM): 91.9%; viability, T/C (second compound 10 µM, first compound 0.01 µM): 94.6% |
| CC1(C)CCC(CN2CCN(c3ccc(C(=O)NS(=O)(=O)c4ccc(NCC5CCOCC5)c([N+](=O)[O-])c4)c(Oc4cnc5[nH]ccc5c4)c3)CC2)=C(c2ccc(Cl)cc2)C1 + CC1OCC2(CCN(c3cnc(Sc4ccnc(N)c4Cl)c(N)n3)CC2)C1N | < 5.00 | < 5.00 | < 5.00 | 5.25 | 5.60 | 100 | 104 | 83.8 | 91 | 85.1 | 89.5 | 65.3 | 73.9 | 64.1 | 66.1 | 96.7 | 100 | 97.1 | 98.4 | 84.3 | viability, T/C [16]: 84.1%; viability, T/C [17]: 84.3%; viability, T/C [18]: 65.7%; viability, T/C [19]: 78.6%; viability, T/C [20]: 88.6%; viability, T/C [21]: 80.7%; viability, T/C [22]: 54%; viability, T/C [23]: 65.3%; viability, T/C [24]: 69%; viability, T/C [25]: 66.3%; viability, T/C [26]: 33%; viability, T/C [27]: 69.8%; viability, T/C [28]: 62.2%; viability, T/C [29]: 46.6%; viability, T/C [30]: 3.55% |
| COC(=O)c1ccc2c(C(=Nc3ccc(N(C)C(=O)CN4CCN(C)CC4)cc3)c3ccccc3)c(O)[nH]c2c1 + C=CC(=O)N1CCN(c2nc(=O)n(-c3c(C)ccnc3C(C)C)c3nc(-c4c(O)cccc4F)c(F)cc23)C(C)C1 | < 5.00 | < 5.00 | < 5.00 | < 5.00 | < 5.00 | 91.1 | 89.7 | 89 | 99.9 | 90.6 | 91.2 | 93 | 101 | 95.6 | 104 | 92.3 | 91.8 | 83.5 | 85 | 94 | viability, T/C [16]: 89.9%; viability, T/C [17]: 84.5%; viability, T/C [18]: 85.5%; viability, T/C [19]: 84.9%; viability, T/C [20]: 76.3%; viability, T/C [21]: 77.3%; viability, T/C [22]: 83.4%; viability, T/C [23]: 88.3%; viability, T/C [24]: 88.7%; viability, T/C [25]: 75%; viability, T/C [26]: 85.7%; viability, T/C [27]: 93.5%; viability, T/C [28]: 87.4%; viability, T/C [29]: 77.5%; viability, T/C [30]: 75.4% |
